Experimental data: patent US7671048B2, “Substituted imidazo [1,5-a][1,2,4]triazolo[1,5-d][1,4]benzodiazepine derivatives” (priority 2004, dated 2010)
Where two headings read alike, the source gives them in different places.

Assays:
GABA A receptor α1β3γ2 = molecular target: T1, GABA A receptor α1β3γ2 (Homo sapiens, UniProt P14867+P18507); assay: [3H]flumazenil competition binding, human α1β3γ2
T1 construct: expressed in transfected cells; host or cells: HEK293 (transiently transfected), membranes
Description: (§1) The affinity of compounds at GABA A receptor subtypes was measured by competition for [^3H]flumazenil (85 Ci/mmol; Roche) binding to HEK293 cells expressing rat (stably transfected) or human (transiently transfected) receptors of composition α1β3γ2, α2β3γ2, α3β3γ2 and α5β3γ2.
(§2) Cell pellets were suspended in Krebs-tris buffer (4.8 mM KCl, 1.2 mM CaCl2, 1.2 mM MgCl2, 120 mM NaCl, 15 mM Tris; pH 7.5; binding assay buffer), homogenized by polytron for ca. 20 sec on ice and centrifuged for 60 min at 4° C. (50000 g; Sorvall, rotor: SM24=20000 rpm). The cell pellets were resuspended in Krebs-tris buffer and homogenized by polytron for ca. 15 sec on ice. Protein was measured (Bradford method, Bio-Rad) and aliquots of 1 mL were prepared and stored at −80° C.
(§3) Radioligand binding assays were carried out in a volume of 200 μL (96-well plates) which contained 100 μL of cell membranes, [^3H]flumazenil at a concentration of 1 nM for α1, α2, α3 subunits and 0.5 nM for α5 subunits and the test compound in the range of 10^−10−3×10^−6 M. Nonspecific binding was defined by 10^−5 M diazepam and typically represented less than 5% of the total binding. Assays were incubated to equilibrium for 1 hour at 4° C. and harvested onto GF/C uni-filters (Packard) by filtration using a Packard harvester and washing with ice-cold-wash buffer (50 mM Tris; pH 7.5). After drying, filter-retained radioactivity was detected by liquid scintillation counting. Ki values were calculated using Excel-Fit (Microsoft) and are the means of two determinations.

GABA A receptor α2β3γ2 = molecular target: T2, GABA A receptor α2β3γ2 (Homo sapiens, UniProt P18507+P47869); assay: [3H]flumazenil competition binding, human α2β3γ2
T2 construct: expressed in transfected cells; host or cells: HEK293 (transiently transfected), membranes
Description: as §1, §2, §3

GABA A receptor α3β3γ2 = molecular target: T3, GABA A receptor α3β3γ2 (Homo sapiens, UniProt P18507+P34903); assay: [3H]flumazenil competition binding, human α3β3γ2
T3 construct: expressed in transfected cells; host or cells: HEK293 (transiently transfected), membranes
Description: as §1, §2, §3

GABA A receptor α5β3γ2 = molecular target: T4, GABA A receptor α5β3γ2 (Homo sapiens, UniProt P18507+P31644); assay: [3H]flumazenil competition binding, human α5β3γ2
T4 construct: expressed in transfected cells; host or cells: HEK293 (transiently transfected), membranes
Description: as §1, §2, §3

[1] = HEK293 cell membranes, human (transiently transfected) receptor, 1 nM [3H]flumazenil, mean of two determinations, read-out: Ki[nM] hα1
[2] = HEK293 cell membranes, human (transiently transfected) receptor, 1 nM [3H]flumazenil, mean of two determinations, read-out: Ki[nM] hα2
[3] = HEK293 cell membranes, human (transiently transfected) receptor, 1 nM [3H]flumazenil, mean of two determinations, read-out: Ki[nM] hα3
[4] = HEK293 cell membranes, human (transiently transfected) receptor, 0.5 nM [3H]flumazenil, mean of two determinations, read-out: Ki[nM] hα5

CC(=O)c1ncn2c1Cn1ncnc1-c1cc(F)ccc1-2 [Example 1, 1-[3-Fluoro-9H-imidazo[1,5-a][1,2,4]triazolo[1,5-d][1,4]benzodiazepin-10-yl]-ethanone]
Ki (GABA A receptor α1β3γ2; [1]): 314 nM
Ki (GABA A receptor α2β3γ2; [2]): 183 nM
Ki (GABA A receptor α3β3γ2; [3]): 233 nM
Ki (GABA A receptor α5β3γ2; [4]): 104 nM

CCC(=O)c1ncn2c1Cn1ncnc1-c1cc(F)ccc1-2 [Example 2, 1-[3-Fluoro-9H-imidazo[1,5-a][1,2,4]triazolo[1,5-d][1,4]benzodiazepin-10-yl]-propan-1-one]
Ki (GABA A receptor α1β3γ2): 6.2 nM
Ki (GABA A receptor α2β3γ2): 3.4 nM
Ki (GABA A receptor α3β3γ2): 3.9 nM
Ki (GABA A receptor α5β3γ2): 2.2 nM

O=C(c1ncn2c1Cn1ncnc1-c1cc(F)ccc1-2)C1CC1 [Example 3, Cyclopropyl-[3-fluoro-9H-imidazo[1,5-a][1,2,4]triazolo[1,5-d][1,4]benzodiazepin-10-yl]-methanone]
Ki (GABA A receptor α1β3γ2): 2.8 nM
Ki (GABA A receptor α2β3γ2): 2 nM
Ki (GABA A receptor α3β3γ2): 1.8 nM
Ki (GABA A receptor α5β3γ2): 1.2 nM

O=C(CCCc1ccccc1)c1ncn2c1Cn1ncnc1-c1cc(F)ccc1-2 [Example 4, 1-[3-Fluoro-9H-imidazo[1,5-a][1,2,4]triazolo[1,5-d][1,4]benzodiazepin-10-yl]-4-phenyl-butan-1-one]
Ki (GABA A receptor α1β3γ2): 45.6 nM
Ki (GABA A receptor α2β3γ2): 60 nM
Ki (GABA A receptor α3β3γ2): 55.9 nM
Ki (GABA A receptor α5β3γ2): 16.4 nM

CCC(=O)c1ncn2c1Cn1ncnc1-c1cc(Cl)ccc1-2 [Example 5, 1-[3-Chloro-9H-imidazo[1,5-a][1,2,4]triazolo[1,5-d][1,4]benzodiazepin-10-yl]-propan-1-one]
Ki (GABA A receptor α1β3γ2): 32.2 nM
Ki (GABA A receptor α2β3γ2): 28.1 nM
Ki (GABA A receptor α3β3γ2): 22.4 nM
Ki (GABA A receptor α5β3γ2): 2.7 nM

O=C(c1ncn2c1Cn1ncnc1-c1cc(Cl)ccc1-2)C1CC1 [Example 6, Cyclopropyl-[3-chloro-9H-imidazo[1,5-a][1,2,4]triazolo[1,5-d][1,4]benzodiazepin-10-yl]-methanone]
Ki (GABA A receptor α1β3γ2): 14.5 nM
Ki (GABA A receptor α2β3γ2): 18 nM
Ki (GABA A receptor α3β3γ2): 19.9 nM
Ki (GABA A receptor α5β3γ2): 2.2 nM

O=C1CCCN1C(=O)c1ncn2c1Cn1ncnc1-c1cc(F)ccc1-2 [Example 9, 1-[[3-Fluoro-9H-imidazo[1,5-a][1,2,4]triazolo[1,5-d][1,4]benzodiazepin-10-yl]carbonyl]-2-pyrrolidinone]
Ki (GABA A receptor α1β3γ2): 12.3 nM
Ki (GABA A receptor α2β3γ2): 12.3 nM
Ki (GABA A receptor α3β3γ2): 9 nM
Ki (GABA A receptor α5β3γ2): 5.8 nM

C#CCNC(=O)c1ncn2c1Cn1ncnc1-c1cc(F)ccc1-2 [Example 10, 3-Fluoro-9H-imidazo[1,5-a][1,2,4]triazolo[1,5-d][1,4]benzodiazepine-10-carboxylic acid prop-2-ynylamide]
Ki (GABA A receptor α1β3γ2; [1]): 242 nM
Ki (GABA A receptor α2β3γ2): 67.8 nM
Ki (GABA A receptor α3β3γ2): 64.9 nM
Ki (GABA A receptor α5β3γ2): 67.8 nM

CCOC(=O)c1ncn2c1Cn1ncnc1-c1cc(C3CC3)ccc1-2 [Example 12, Ethyl 3-cyclopropyl-9H-imidazo[1,5-a][1,2,4]triazolo[1,5-d][1,4]benzodiazepine-10-carboxylate]
Ki (GABA A receptor α1β3γ2): 1.7 nM
Ki (GABA A receptor α2β3γ2): 0.9 nM
Ki (GABA A receptor α3β3γ2): 0.7 nM
Ki (GABA A receptor α5β3γ2): 0.6 nM

CCOC(=O)c1ncn2c1Cn1ncnc1-c1cc(OC)ccc1-2 [Example 14, Ethyl 3-methoxy-9H-imidazo[1,5-a][1,2,4]triazolo[1,5-d][1,4]benzodiazepine-10-carboxylate]
Ki (GABA A receptor α1β3γ2): 0.9 nM
Ki (GABA A receptor α2β3γ2): 1.7 nM
Ki (GABA A receptor α3β3γ2): 0.9 nM
Ki (GABA A receptor α5β3γ2): 0.2 nM

CCOC(=O)c1ncn2c1Cn1ncnc1-c1cc(OC(F)(F)F)ccc1-2 [Example 19, Ethyl 3-trifluoromethoxy-9H-imidazo[1,5-a][1,2,4]triazolo[1,5-d][1,4]benzodiazepine-10-carboxylate]
Ki (GABA A receptor α1β3γ2): 3.4 nM
Ki (GABA A receptor α2β3γ2): 1.1 nM
Ki (GABA A receptor α3β3γ2): 1.4 nM
Ki (GABA A receptor α5β3γ2): 0.7 nM

O=Cc1ncn2c1Cn1ncnc1-c1cc(Cl)ccc1-2 [Example 21, 3-Chloro-9H-imidazo[1,5-a][1,2,4]triazolo[1,5-d][1,4]benzodiazepine-10-carbaldehyd]
Ki (GABA A receptor α1β3γ2; [1]): 223 nM
Ki (GABA A receptor α2β3γ2; [2]): 134 nM
Ki (GABA A receptor α3β3γ2): 71.9 nM
Ki (GABA A receptor α5β3γ2): 5.9 nM

CCOC(=O)c1ncn2c1Cn1ncnc1-c1cc(Br)ccc1-2 [Example 23, Ethyl 3-bromo-9H-imidazo[1,5-a][1,2,4]triazolo[1,5-d][1,4]benzodiazepine-10-carboxylate]
Ki (GABA A receptor α1β3γ2; [1]): 1.9 nM
Ki (GABA A receptor α2β3γ2; [2]): 3.8 nM
Ki (GABA A receptor α3β3γ2; [3]): 1.8 nM
Ki (GABA A receptor α5β3γ2; [4]): 0.3 nM

C#Cc1ccc2c(c1)-c1ncnn1Cc1c(C(=O)OCC)ncn1-2 [Example 24, Ethyl 3-ethynyl-9H-imidazo[1,5-a][1,2,4]triazolo[1,5-d][1,4]benzodiazepine-10-carboxylate]
Ki (GABA A receptor α1β3γ2): 10.6 nM
Ki (GABA A receptor α2β3γ2): 4.4 nM
Ki (GABA A receptor α3β3γ2): 6.4 nM
Ki (GABA A receptor α5β3γ2): 0.6 nM

COCCOC(=O)c1ncn2c1Cn1ncnc1-c1cc(Br)ccc1-2 [Example 25, 2-Methoxy-ethyl 3-bromo-9H-imidazo[1,5-a][1,2,4]triazolo[1,5-d][1,4]benzodiazepine-10-carboxylate]
Ki (GABA A receptor α1β3γ2): 20.3 nM
Ki (GABA A receptor α2β3γ2): 28.5 nM
Ki (GABA A receptor α3β3γ2): 18.8 nM
Ki (GABA A receptor α5β3γ2): 1.4 nM

CCCC(=O)c1ncn2c1Cn1ncnc1-c1cc(Br)ccc1-2 [Example 26, 1-[3-Bromo-9H-imidazo[1,5-a][1,2,4]triazolo[1,5-d][1,4]benzodiazepin-10-yl]-butan-1-one]
Ki (GABA A receptor α1β3γ2): 85.1 nM
Ki (GABA A receptor α2β3γ2; [2]): 106 nM
Ki (GABA A receptor α3β3γ2): 72.7 nM
Ki (GABA A receptor α5β3γ2): 3.5 nM

CC(C)CC(=O)c1ncn2c1Cn1ncnc1-c1cc(Br)ccc1-2 [Example 31, 1-[3-Bromo-9H-imidazo[1,5-a][1,2,4]triazolo[1,5-d][1,4]benzodiazepin-10-yl]-3-methyl-butan-1-one]
Ki (GABA A receptor α1β3γ2; [1]): 243 nM
Ki (GABA A receptor α2β3γ2; [2]): 261 nM
Ki (GABA A receptor α3β3γ2; [3]): 173 nM
Ki (GABA A receptor α5β3γ2): 8.3 nM

O=C(CCc1ccccc1)c1ncn2c1Cn1ncnc1-c1cc(Br)ccc1-2 [Example 33, 1-[3-Bromo-9H-imidazo[1,5-a][1,2,4]triazolo[1,5-d][1,4]benzodiazepin-10-yl]-3-phenyl-propan-1-one]
Ki (GABA A receptor α1β3γ2; [1]): 109 nM
Ki (GABA A receptor α2β3γ2; [2]): 160 nM
Ki (GABA A receptor α3β3γ2; [3]): 133 nM
Ki (GABA A receptor α5β3γ2): 3.8 nM

CCOC(=O)c1ncn2c1Cn1ncnc1-c1cc(NC(=O)C(F)(F)F)ccc1-2 [Example 38, Ethyl 3-(2,2,2-trifluoro-acetylamino)-9H-imidazo[1,5-a][1,2,4]triazolo[1,5-d][1,4]benzodiazepine-10-carboxylate]
Ki (GABA A receptor α1β3γ2): 3.1 nM
Ki (GABA A receptor α2β3γ2): 7.3 nM
Ki (GABA A receptor α3β3γ2): 5.7 nM
Ki (GABA A receptor α5β3γ2): 1.2 nM

CCOC(=O)c1ncn2c1Cn1ncnc1-c1cc(NC(=O)C(C)C)ccc1-2 [Example 39, Ethyl 3-isobutyrylamino-9H-imidazo[1,5-a][1,2,4]triazolo[1,5-d][1,4]benzodiazepine-10-carboxylate]
Ki (GABA A receptor α1β3γ2): 11.4 nM
Ki (GABA A receptor α2β3γ2): 73.5 nM
Ki (GABA A receptor α3β3γ2): 39.7 nM
Ki (GABA A receptor α5β3γ2): 6.4 nM

CCOC(=O)c1ncn2c1Cn1ncnc1-c1cc(NC(=O)CCOC)ccc1-2 [Example 41, Ethyl 3-(3-methoxy-propionylamino)-9H-imidazo[1,5-a][1,2,4]triazolo[1,5-d][1,4]benzodiazepine-10-carboxylate]
Ki (GABA A receptor α1β3γ2): 9.7 nM
Ki (GABA A receptor α2β3γ2): 24.8 nM
Ki (GABA A receptor α3β3γ2): 17.7 nM
Ki (GABA A receptor α5β3γ2): 5.1 nM

CCOC(=O)c1ncn2c1Cn1ncnc1-c1cc(NC=O)ccc1-2 [Example 42, Ethyl 3-formylamino-9H-imidazo[1,5-a][1,2,4]triazolo[1,5-d][1,4]benzodiazepine-10-carboxylate]
Ki (GABA A receptor α1β3γ2): 6.5 nM
Ki (GABA A receptor α2β3γ2): 8.6 nM
Ki (GABA A receptor α3β3γ2): 4.9 nM
Ki (GABA A receptor α5β3γ2): 2 nM

CCOC(=O)Nc1ccc2c(c1)-c1ncnn1Cc1c(C(=O)OCC)ncn1-2 [Example 43, Ethyl 3-ethoxycarbonylamino-9H-imidazo[1,5-a][1,2,4]triazolo[1,5-d][1,4]benzodiazepine-10-carboxylate]
Ki (GABA A receptor α1β3γ2): 5.3 nM
Ki (GABA A receptor α2β3γ2): 22 nM
Ki (GABA A receptor α3β3γ2): 14.4 nM
Ki (GABA A receptor α5β3γ2): 2.6 nM

CCNC(=O)Nc1ccc2c(c1)-c1ncnn1Cc1c(C(=O)OCC)ncn1-2 [Example 44, Ethyl 3-(3-ethyl-ureido)-9H-imidazo[1,5-a][1,2,4]triazolo[1,5-d][1,4]benzodiazepine-10-carboxylate]
Ki (GABA A receptor α1β3γ2): 20.3 nM
Ki (GABA A receptor α2β3γ2): 26 nM
Ki (GABA A receptor α3β3γ2): 12.4 nM
Ki (GABA A receptor α5β3γ2): 6.9 nM
